# In patent US9233954B2, “Organic amine salts of Azilsartan, preparation method and use thereof” (Jiangsu Hansoh Pharmaceutical Co., Ltd., priority 2011, dated 2016):
# Where a name gives a salt, the structure may show the parent alone. Read-outs that look alike come from different tables or passages of the source.
# Legend:
# Beagle dog = type: in vivo; conditions: for Clinical observations: Beagle dog, intragastric
# Description: Acute Toxicity Test Research for Beagle Dog
# Object: Approximate lethal dose method was introduced in the test to observe the acute toxicity response of the animals by intragastric administration of example 2 or Azilsartan medoxomil potassium salt to Beagle dogs to study the toxicity situation of example 2 after administration and compare the toxicity of example 2 and Azilsartan medoxomil potassium salt, which can provide reference confirmation for the evaluation of toxicity of example 2.
# Method (approximate lethal dose method): 6 Beagle dogs were used, 3 for each of example 2 group and Azilsartan medoxomil potassium salt group. The administration dosage was 0.09, 0.13, 0.19, 0.28, 0.42, 0.63, 0.95, 1.42, 2.13, 3.20 g·kg^−1 respectively, wherein 3.20 g·kg^−1 was the maximum administration dosage (corresponding to 1081 times the given dosage for the clinical patient). The blood was collected before administration and on days 2, 7, and 14 after administration to test the corresponding biochemical indicators. Electrocardiogram, body weight, and body temperature were determined before administration and on days 7 and 14 after administration.
# Hygroscopicity test = type: physicochemical; conditions: 25° C.±1° C., RH 80%±2%, 24 h
# Description: 1. A dried glass weighing bottle (Outer diameter […]) with a plug was put into an artificial climate box under the temperature of 25° C.±1° C. and relative humidity (RH) of 80%±2% the day before and then weighed precisely (m1).
# 2. The testing sample was weighed precisely (m2) and lain into the weighing bottle. The thickness of the test sample was about 1 mm.
# 3. The uncovered weighing bottle and its plug were placed under the above constant temperature and humidity conditions for 24 h.
# 4. The weighing bottle was covered and weighed precisely (m3).
# Calculation formula: Percent of weight increase=(m3−m2)/(m2−m1)*100%
# 5. Definition of the weight increase of the hygroscopicity
# Deliquescence: absorbing enough water to form liquid.
# High hygroscopicity: the weight increase of the hygroscopicity is no less than 15%
# Having hygroscopicity: the weight increase of the hygroscopicity is between 15% and 2%
# Slight hygroscopicity: the weight increase of the hygroscopicity is between 2% and 0.2%
# No or almost no hygroscopicity: the weight increase of the hygroscopicity is less than 0.2%
# Solubility test = conditions: conclusion of the solubility test
# Description: Moreover, “1:40” refers to 1 g of sample was dissolved in 40 ml of methanol at room temperature, the same as “1:80”; “1:120” refers to 1 g of sample was dissolved in 40 ml of ethanol at room temperature, the same as “1:200”.
# [1] = tested on: blood pressure of SHR rats; experiment: Antihypertensive effect test for spontaneously hypertensive (SHR) rats; type: in vivo; conditions: 10 mg/kg
# Description: Antihypertensive Effect Test For Spontaneously Hypertensive (SHR) Rats
# […] of 25 week old SHR male rats were randomly divided into 4 groups according to the initial blood pressure, with 6 for the control group (solvent) and 8 for other groups. 10 mg/kg of example 2 compound (Choline Azilsartan), example 4 compound (Azilsartan ethanolamine salts) and control (Azilsartan medoxomil potassium salt) were continuously administered, respectively. The solvent control group was administered solvent. The administration volume was 5 ml/kg and the period was 2 weeks.
smiles,measurement,setting,value
"CCOc1nc2cccc(C(=O)OCc3oc(=O)oc3C)c2n1Cc1ccc(-c2ccccc2-c2noc(=O)[nH]2)cc1 [Azilsartan kamedoxomil, Azilsartan medoxomil potassium salt, reference compound]",Clinical observations,Beagle dog; 1.42 g·kg^−1 dosage group,"vomit, less moving; moving reduction on day 2 after administration, moving recovered on day 3 and no abnormality observed after day 3"
same,Clinical observations,Beagle dog; 2.13 g·kg^−1 dosage group,"vomit, drooling, moving reduction; moving reduction on day 2 after administration, moving recovered on day 3 and no abnormality observed after day 3"
same,Clinical observations,Beagle dog; 3.20 g·kg^−1 dosage group,"vomit, drooling, less moving; moving reduction on days 2˜8, prostration on days 5˜8, died on day 9"
same,Body temperature,"Beagle dog; dog, in vivo",no abnormality on day 7 after administration
same,Body weight,"Beagle dog; dog, in vivo",decreased on day 7 after administration compared with pre-administration
same,Electrocardiogram and haematological indicators,"Beagle dog; dog, in vivo",not abnormal on day 7 after administration
same,PT values,"Beagle dog; dog, in vivo",reduced significantly after administration compared to pre-administration
same,Systolic blood pressure and diastolic blood pressure,"Beagle dog; dog, in vivo",reduced more or less on day 2 after administration
CCOc1nc2cccc(C(=O)[O-])c2n1Cc1ccc(-c2ccccc2-c2noc(=O)[nH]2)cc1.C[N+](C)(C)CCO [Example 1],Conclusion (hygroscopic or not),Hygroscopicity test,Yes
same,Hygroscopicity (percent of weight increase),Hygroscopicity test,10.51%
same,"Solubility, comparison between samples",Solubility test,comparable to the solubility of example 2 compound
CCOc1nc2cccc(C(=O)O)c2n1Cc1ccc(-c2ccccc2-c2noc(=O)[nH]2)cc1.NCCO [Example 3],Conclusion (hygroscopic or not),Hygroscopicity test,Yes
same,Hygroscopicity (percent of weight increase),Hygroscopicity test,5.66%
CCOc1nc2cccc(C(=O)O)c2n1Cc1ccc(-c2ccccc2-c2noc(=O)[nH]2)cc1.CCOc1nc2cccc(C(=O)O)c2n1Cc1ccc(-c2ccccc2-c2noc(=O)[nH]2)cc1.NCCO [Example 4],Hygroscopicity (percent of weight increase),Hygroscopicity test,0.08%
same,Conclusion (hygroscopic or not),Hygroscopicity test; listed as Example 4 Compound,No
same,Conclusion (hygroscopic or not),Hygroscopicity test; listed as example 4 compound,not hygroscopic
same,Antihypertensive effect compared with control (Azilsartan medoxomil potassium salt),"[1]; SHR rats, 2 weeks",superior to the antihypertensive effect of control
same,"Antihypertensive effect, ranking under the same dosage","[1]; SHR rats, 2 weeks",less effective
same,Effect on blood pressure of SHR rats compared with solvent control,"[1]; continuously administered for one or two weeks, FIG. 4",reduce the blood pressure of SHR rats significantly
